Experimental data taken from patent publication US9695178B2, “6-(2-pyridyl)-7,8-dihydro-5H-pyrido[4,3-D]pyrimidine analogs as hedgehog pathway signaling inhibitors and therapeutic applications thereof” (Suzhou Yunxuan Yiyao Keji Youxian Gongsi, priority 2013, dated 2017).

The compounds below were run against Smo (Homo sapiens, UniProt Q99835) (assay: Bodipy-Cyclopamine Binding Assay (confirmation assay), Hek293-SMO cells).
Chain of Smo (Q99835 28-787): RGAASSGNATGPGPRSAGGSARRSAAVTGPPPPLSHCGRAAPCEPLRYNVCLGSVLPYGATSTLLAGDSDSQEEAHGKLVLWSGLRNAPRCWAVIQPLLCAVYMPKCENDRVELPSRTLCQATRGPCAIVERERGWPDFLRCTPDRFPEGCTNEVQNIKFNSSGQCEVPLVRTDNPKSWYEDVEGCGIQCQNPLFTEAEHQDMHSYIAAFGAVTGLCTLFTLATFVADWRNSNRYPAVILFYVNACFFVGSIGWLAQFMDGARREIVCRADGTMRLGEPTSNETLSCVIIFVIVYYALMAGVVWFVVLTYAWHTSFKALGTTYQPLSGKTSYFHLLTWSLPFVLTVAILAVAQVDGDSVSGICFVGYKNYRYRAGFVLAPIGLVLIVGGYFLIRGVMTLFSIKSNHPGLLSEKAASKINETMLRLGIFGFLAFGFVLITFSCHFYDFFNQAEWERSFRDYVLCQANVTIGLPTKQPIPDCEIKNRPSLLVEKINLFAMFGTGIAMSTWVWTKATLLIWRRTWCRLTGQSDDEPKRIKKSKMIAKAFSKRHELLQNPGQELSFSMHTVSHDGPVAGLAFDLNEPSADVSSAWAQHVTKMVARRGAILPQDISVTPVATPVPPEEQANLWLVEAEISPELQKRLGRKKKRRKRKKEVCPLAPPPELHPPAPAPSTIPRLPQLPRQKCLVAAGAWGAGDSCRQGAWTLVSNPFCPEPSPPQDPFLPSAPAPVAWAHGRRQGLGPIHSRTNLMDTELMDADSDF

| IC50 [nM] | SMILES |
| --- | --- |
| 86.7 | Cc1cnc(-c2cc(N3CCc4nc(N5CCC(O)CC5)sc4C3)ncc2Cl)c(C)c1 [Compound A-32, 1-(5-(5′-chloro-3,5-dimethyl-2,4′-bipyridin-2′-yl)-4,5,6,7-tetrahydro-thiazolo-[5,4-c]pyridin-2-yl)piperidin-4-ol] |
| 447 | Cc1cnc(-c2cc(N3CCc4nc(N5CC(C)OC(C)C5)sc4C3)ncc2Cl)c(C)c1 (stereo not shown) [Compound A-33, 4-(5-(5′-chloro-3,5-dimethyl-2,4′-bipyridin-2′-yl)-4,5,6,7-tetrahydro-thiazolo-[5,4-c]pyridin-2-yl)-2,6-dimethyl-morpholine] |
| 371 | Cc1cnc(-c2cc(N3CCc4nc(N5CCCC5)sc4C3)ncc2Cl)c(C)c1 [Compound A-34, 5-(5′-chloro-3,5-dimethyl-2,4′-bipyridin-2′-yl)-2-(pyrrolidin-1-yl)-4,5,6,7-tetrahydro-thiazolo-[5,4-c]pyridine] |
| 260 | CCNc1nc2c(s1)CN(c1cc(-c3ncc(C)cc3C)c(Cl)cn1)CC2 [Compound A-35, 5-(5′-chloro-3,5-dimethyl-2,4′-bipyridin-2′-yl)-N-ethyl-4,5,6,7-tetrahydro-thiazolo-[5,4-c]pyridin-2-amine] |
| 565 | Cc1cnc(-c2cc(N3CCc4nc(-n5cccn5)sc4C3)ncc2Cl)c(C)c1 [Compound A-36, 5-(5′-chloro-3,5-dimethyl-2,4′-bipyridin-2′-yl)-2-(1H-pyrazol-1-yl)-4,5,6,7-tetrahydro-thiazolo-[5,4-c]pyridine] |
| 487 | CCOC(=O)Nc1nc2c(s1)CN(c1cc(-c3ncc(C)cc3C)c(Cl)cn1)CC2 [Compound A-37, ethyl 5-(5′-chloro-3,5-dimethyl-2,4′-bipyridin-2′-yl)-4,5,6,7-tetrahydro-thiazolo-[5,4-c]pyridin-2-ylcarbamate] |
| > 1000 | Cc1cnc(-c2cc(N3CCc4nc(NC(=O)C(F)(F)F)sc4C3)ncc2Cl)c(C)c1 [Compound A-38, N-(5-(5′-chloro-3,5-dimethyl-2,4′-bipyridin-2′-yl)-4,5,6,7-tetrahydro-thiazolo-[5,4-c]pyridin-2-yl)-2,2,2-trifluoro-acetamide] |
| 134 | Cc1cnc(-c2cc(N3CCc4nc(NC(=O)CCN5CCOCC5)sc4C3)ncc2Cl)c(C)c1 [Compound A-39, N-(5-(5′-chloro-3,5-dimethyl-2,4′-bipyridin-2′-yl)-4,5,6,7-tetrahydro-thiazolo-[5,4-c]pyridin-2-yl)-3-morpholino-propan-amide] |
| 151 | Cc1cnc(-c2cc(N3CCc4nc(NC(=O)CCN5CCCCC5)sc4C3)ncc2Cl)c(C)c1 [Compound A-40, N-(5-(5′-chloro-3,5-dimethyl-2,4′-bipyridin-2′-yl)-4,5,6,7-tetrahydro-thiazolo-[5,4-c]pyridin-2-yl)-3-(piperidin-1-yl)propanamide] |
| 173 | Cc1cnc(-c2cc(N3CCc4nc(NC(=O)CCN(C)C)sc4C3)ncc2Cl)c(C)c1 [Compound A-41, N-(5-(5′-chloro-3,5-dimethyl-2,4′-bipyridin-2′-yl)-4,5,6,7-tetrahydro-thiazolo-[5,4-c]pyridin-2-yl)-3-(dimethyl-amino)-propanamide] |
| 190 | CCNC(=O)Nc1nc2c(s1)CN(c1cc(-c3ncc(C)cc3C)c(Cl)cn1)CC2 [Compound A-42, 1-(5-(5′-chloro-3,5-dimethyl-2,4′-bipyridin-2′-yl)-4,5,6,7-tetrahydro-thiazolo-[5,4-c]pyridin-2-yl)-3-ethylurea] |
| 201 | Cc1cnc(-c2cc(N3CCc4nc(NC(=O)NC(C)C)sc4C3)ncc2Cl)c(C)c1 [Compound A-43, 1-(5-(5′-chloro-3,5-dimethyl-2,4′-bipyridin-2′-yl)-4,5,6,7-tetrahydro-thiazolo-[5,4-c]pyridin-2-yl)-3-isopropylurea] |
| > 1000 | C=CC(=O)Nc1nc2c(s1)CN(c1cc(-c3ncc(C)cc3C)c(Cl)cn1)CC2 [Compound A-44, N-(5-(5′-chloro-3,5-dimethyl-2,4′-bipyridin-2′-yl)-4,5,6,7-tetrahydro-thiazolo-[5,4-c]pyridin-2-yl)acrylamide] |
